Test results reported in patent US20070037830A1, “2-Adamantyl derivatives as p2X7 receptor antagonists” (ASTRAZENECA AB, priority 2003, published 2007).

| Compound | melting point |
| --- | --- |
| COc1ccc(C)c(NC(=O)CC2C3CC4CC(C3)CC2C4)c1 (centres unmarked) [Example 1, 2-(2-Adamantyl)-N-(5-methoxy-2-methylphenyl)acetamide] | 193 to 196 °C |
| O=C(CC1C2CC3CC(C2)CC1C3)Nc1cccc2[nH]ccc12 (centres unmarked) [Example 2, 2-(2-Adamantyl)-N-1H-indol-4-ylacetamide] | 206 to 208 °C |
